Assay results: PubChem BioAssay (NCI)
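Tested at 5 concentrations; 48 h exposure; 96-well plates; endpoints linearly interpolated, else capped at highest concentration. Here, GI50 denotes the concentration required for 50% inhibition of growth. TGI: total growth inhibition.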

Assays:
Experiment in all cases: inhibition of tumour cell growth, NCI panel, 48 h
[1] = system: SNB-75 CNS
[2] = system: SF-539 CNS
[3] = system: EKVX NSCLC
[4] = system: U251 CNS
[5] = system: IGROV1 ovarian
[6] = system: 786-0 renal
[7] = system: OVCAR-8 ovarian
[8] = system: ACHN renal
[9] = system: CCRF-CEM leukemia
[10] = system: UACC-257 melanoma
[11] = system: SNB-19 CNS
[12] = system: SF-268 CNS
[13] = system: NCI/ADR-RES ovarian
[14] = system: HT29 colon
[15] = system: OVCAR-5 ovarian
[16] = system: HCT-116 colon
[17] = system: UO-31 renal
[18] = system: K-562 leukemia
[19] = system: SK-MEL-28 melanoma
[20] = system: A549 NSCLC
[21] = system: SK-MEL-5 melanoma
[22] = system: MCF7 breast
[23] = system: UACC-62 melanoma
[24] = system: DU-145 prostate
[25] = system: HOP-62 NSCLC
[26] = system: M14 melanoma
[27] = system: HCC-2998 colon
[28] = system: NCI-H23 lung
[29] = system: COLO 205 colon
[30] = system: MOLT-4 leukemia
[31] = system: A498 renal
[32] = system: MDA-MB-435
[33] = system: MALME-3M melanoma
[34] = system: SN12C renal
[35] = system: NCI-H460 lung
[36] = system: KM12 colon
[37] = system: SW-620 colon
[38] = system: SK-OV-3 ovarian
[39] = system: TK-10 renal
[40] = system: NCI-H226 lung
[41] = system: OVCAR-4 ovarian
[42] = system: MDA-MB-231 breast
[43] = system: SR leukemia
[44] = system: RXF 393 renal
[45] = system: SF-295 CNS
[46] = system: T-47D breast
[47] = system: HL-60(TB) leukemia
[48] = system: RPMI-8226 leukemia
[49] = system: HS 578T breast
[50] = system: CAKI-1 renal
[51] = system: HCT-15 colon
[52] = system: HOP-92 NSCLC
[53] = system: SK-MEL-2 melanoma
[54] = system: NCI-H522 lung
[55] = system: LOX IMVI melanoma
[56] = system: PC-3 prostate
[57] = system: OVCAR-3 ovarian

`C=CC1CC1(CO)COc1cc(Cl)nc(N)n1` (stereo unspecified) was tested, and the GI50 [1] was 86.4 µM.

`CC1=COC(C)(C=C(C#N)C#N)CC1` (stereo unspecified) gave a TGI [2] of 51.1 µM, a TGI [3] of over 100 µM and a TGI [4] of over 100 µM. The TGI [5] was over 100000 nM, the TGI [6] was over 100 µM and the TGI [7] was over 100 µM. For the same compound, the TGI [8] was over 100 µM, the TGI [9] was over 100 µM and the TGI [10] was over 100 µM. It also gave a TGI [11] of over 100 µM, a TGI [12] of over 100 µM and a TGI [13] of over 100 µM. The TGI [14] was over 100 µM, the TGI [15] was over 100 µM and the TGI [16] was over 100 µM. For the same compound, the TGI [17] was over 100 µM, the TGI [18] was over 100 µM and the TGI [19] was over 100 µM. It also gave a TGI [20] of over 100 µM, a TGI [21] of over 100 µM and a TGI [22] of over 100 µM. The TGI [23] was over 100 µM, the TGI [24] was over 100 µM and the TGI [25] was over 100 µM. It also gave a TGI [26] of over 100 µM, a TGI [27] of over 100 µM and a TGI [28] of over 100 µM. For the same compound, the TGI [29] was over 100 µM, the TGI [30] was over 100 µM and the TGI [31] was over 100 µM. The TGI [32] was over 100 µM, the TGI [33] was over 100 µM and the TGI [34] was over 100 µM. For the same compound, the TGI [35] was over 100 µM, the TGI [36] was over 100 µM and the TGI [37] was over 100 µM. The TGI [38] was over 100 µM, the TGI [39] was over 100 µM and the TGI [40] was over 100 µM. For the same compound, the TGI [41] was over 100 µM, the TGI [42] was over 100 µM and the TGI [1] was over 100 µM. The TGI [43] was over 100 µM, the TGI [44] was over 100 µM and the TGI [45] was over 100 µM. The TGI [46] was over 100 µM, the TGI [47] was 50.1 µM and the TGI [48] was over 100 µM. The TGI [49] was 51.3 µM.

`O=C(COc1ccc(/C=C2\CSc3ccccc3C2=O)cc1)Nc1nccs1` gave a GI50 [50] of 12.8 µM, a TGI [50] of 25.3 µM and a GI50 [2] of 15 µM. It also gave a TGI [2] of 29.7 µM, a GI50 [3] of 17.3 µM and a TGI [3] of 31.1 µM. It also gave a GI50 [4] of 6.93 µM, a TGI [4] of 19.5 µM and a GI50 [5] of 1380 nM. The TGI [5] was 2670 nM, the GI50 [6] was 14 µM and the TGI [6] was 27 µM. It also gave a GI50 [7] of 7.76 µM, a TGI [7] of 32.8 µM and a GI50 [8] of 13.5 µM. The TGI [8] was 26.4 µM, the GI50 [9] was 2010 nM and the TGI [9] was 9.09 µM. It also gave a GI50 [10] of 12.6 µM, a TGI [10] of 25.1 µM and a GI50 [51] of 4.03 µM. It also gave a TGI [51] of 14.7 µM, a GI50 [11] of 13.4 µM and a TGI [11] of 26.2 µM. For the same compound, the GI50 [12] was 3.61 µM, the TGI [12] was 13.6 µM and the GI50 [13] was 21.4 µM. It also gave a TGI [13] of 66.5 µM, a GI50 [52] of 26 nM and a TGI [52] of 9.46 µM. It also gave a GI50 [14] of 4.48 µM, a TGI [14] of 16.2 µM and a GI50 [15] of 18.2 µM. It also gave a TGI [15] of 32.8 µM, a GI50 [16] of 4.32 µM and a TGI [16] of 14.7 µM. It also gave a GI50 [17] of 2240 nM, a TGI [17] of 6.73 µM and a GI50 [18] of 3.11 µM. The TGI [18] was over 100 µM, the GI50 [19] was 11.8 µM and the TGI [19] was 24.1 µM. The GI50 [20] was 15.3 µM, the TGI [20] was 28.5 µM and the GI50 [21] was 11.5 µM. For the same compound, the TGI [21] was 23.6 µM, the GI50 [22] was 3.43 µM and the TGI [22] was 10.6 µM. The GI50 [23] was 5.32 µM, the TGI [23] was 19 µM and the GI50 [24] was 4.2 µM. The TGI [24] was 14.3 µM, the GI50 [25] was 16.3 µM and the TGI [25] was 30.8 µM. For the same compound, the GI50 [26] was 9.38 µM, the TGI [26] was 21.2 µM and the GI50 [27] was 4.03 µM. It also gave a TGI [27] of 17.1 µM, a GI50 [28] of 11.7 µM and a TGI [28] of 24.3 µM. It also gave a GI50 [29] of 14.1 µM, a TGI [29] of 27.1 µM and a GI50 [31] of 15.8 µM. The TGI [31] was 29.2 µM, the GI50 [32] was 3.31 µM and the TGI [32] was 15.1 µM. For the same compound, the GI50 [33] was 15 µM, the TGI [33] was 31.4 µM and the GI50 [34] was 5.8 µM. For the same compound, the TGI [34] was 29.8 µM, the GI50 [35] was 15.9 µM and the TGI [35] was 31.9 µM. The GI50 [36] was 2960 nM, the TGI [36] was 8.99 µM and the GI50 [37] was 2700 nM. It also gave a TGI [37] of 7.12 µM, a GI50 [38] of 22.2 µM and a TGI [38] of 42.2 µM. For the same compound, the GI50 [39] was 10.6 µM, the TGI [39] was 27.7 µM and the GI50 [53] was 11.3 µM. For the same compound, the TGI [53] was 23.3 µM, the GI50 [40] was 15.6 µM and the TGI [40] was 32.5 µM. The GI50 [54] was 1920 nM, the TGI [54] was 4.17 µM and the GI50 [55] was 1770 nM. It also gave a TGI [55] of 3.41 µM, a GI50 [41] of 18.9 µM and a TGI [41] of 72.3 µM. For the same compound, the GI50 [56] was 3.97 µM, the TGI [56] was 28.9 µM and the GI50 [42] was 14.4 µM. The TGI [42] was 35 µM, the GI50 [1] was 11.5 µM and the TGI [1] was 25.1 µM. The GI50 [45] was 11.8 µM, the TGI [45] was 25.6 µM and the GI50 [46] was 13.5 µM. The TGI [46] was 42.4 µM, the GI50 [48] was 2130 nM and the TGI [48] was 6.7 µM. For the same compound, the GI50 [57] was 2170 nM, the TGI [57] was 4.25 µM and the GI50 [49] was 4.29 µM. For the same compound, the TGI [49] was 37.2 µM.
